According to the supplement of paper PMC10307832:

Legend:
Assay in all cases: relative viability (nuclei count vs DMSO), 5 days (fraction); higher = more cells survive
Ponatinib + AZD7762 = compound: Cc1ccc(C(=O)Nc2ccc(CN3CCN(C)CC3)c(C(F)(F)F)c2)cc1C#Cc1cnc2cccnn12 [Ponatinib] + NC(=O)Nc1cc(-c2cccc(F)c2)sc1C(=O)N[C@H]1CCCNC1 [AZD7762] (partner 0.2 µM)
Outline: (§1)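 Five library-drug doses in √10 steps were combined with a fixed anchor-drug dose, or a single drug was given alone, by pin tool to lung cancer cell lines in 1536-well plates the day after seeding. Nuclei were stained and counted after 5 days. Relative viability is the nuclei count in treated wells over that in vehicle wells, taken as the median of duplicate plates.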

Ponatinib + OSI-027 = compound: Cc1ccc(C(=O)Nc2ccc(CN3CCN(C)CC3)c(C(F)(F)F)c2)cc1C#Cc1cnc2cccnn12 [Ponatinib] + COc1cccc2cc(-c3nc([C@H]4CC[C@H](C(=O)O)CC4)n4ncnc(N)c34)[nH]c12 [OSI-027] (partner 0.5 µM)
Outline: as §1

Ponatinib + Tozasertib = compound: Cc1ccc(C(=O)Nc2ccc(CN3CCN(C)CC3)c(C(F)(F)F)c2)cc1C#Cc1cnc2cccnn12 [Ponatinib] + Cc1cc(Nc2cc(N3CCN(C)CC3)nc(Sc3ccc(NC(=O)C4CC4)cc3)n2)n[nH]1 [Tozasertib] (partner 0.1 µM)
Outline: as §1

Pazopanib + Alpelisib = compound: Cc1ccc(Nc2nccc(N(C)c3ccc4c(C)n(C)nc4c3)n2)cc1S(N)(=O)=O [Pazopanib] + Cc1nc(NC(=O)N2CCC[C@H]2C(N)=O)sc1-c1ccnc(C(C)(C)C(F)(F)F)c1 [Alpelisib] (partner 2 µM)
Outline: as §1

Cell Line	relative viability (Ponatinib + AZD7762; first compound 0.002 µM)	relative viability (Ponatinib + AZD7762; first compound 0.006325 µM)	relative viability (Ponatinib + AZD7762; first compound 0.06325 µM)	relative viability (Ponatinib + AZD7762; first compound 0.2 µM)	relative viability (Ponatinib + OSI-027; first compound 0.002 µM)	relative viability (Ponatinib + OSI-027; first compound 0.006325 µM)	relative viability (Ponatinib + OSI-027; first compound 0.06325 µM)	relative viability (Ponatinib + OSI-027; first compound 0.2 µM)	relative viability (Ponatinib + Tozasertib; first compound 0.002 µM)	relative viability (Ponatinib + Tozasertib; first compound 0.006325 µM)	relative viability (Ponatinib + Tozasertib; first compound 0.06325 µM)	relative viability (Ponatinib + Tozasertib; first compound 0.2 µM)	relative viability (Pazopanib + Alpelisib; first compound 0.01 µM)	relative viability (Pazopanib + Alpelisib; first compound 0.03162 µM)	relative viability (Pazopanib + Alpelisib; first compound 0.1 µM)	relative viability (Pazopanib + Alpelisib; first compound 0.3162 µM)	relative viability (Pazopanib + Alpelisib; first compound 1 µM)
NCI-H1648	0.627	0.64	0.618	0.567	0.249	0.299	0.261	0.282	0.464	0.361	0.577	0.283	–	–	–	–	–
NCI-H1395	0.387	0.41	0.371	0.362	0.519	0.57	0.558	0.505	0.636	0.747	0.768	0.701	1.02	1.03	1.02	1.12	1.17
NCI-H2347	0.747	0.75	0.626	0.662	0.373	0.421	0.371	0.239	0.473	0.669	0.417	0.51	1.06	1.04	1.08	1.06	1.16
HCC-366	0.247	0.271	0.146	0.119	0.821	0.984	1	0.655	0.112	0.108	0.0686	0.0671	0.33	0.37	0.54	0.444	0.454
201T	0.557	0.546	0.38	0.371	0.622	0.724	0.796	0.711	0.924	1.01	0.966	0.926	0.959	1.06	1.02	0.998	1.05
HCC-827	0.185	0.216	0.182	0.253	0.681	0.833	0.739	0.702	0.403	0.42	0.427	0.414	0.949	0.943	1.02	0.944	1.01
NCI-H650	0.695	0.92	0.981	0.572	0.378	0.49	0.456	0.466	0.685	0.707	0.712	0.618	1.06	1.35	1.19	1.11	1.08
NCI-H2023	–	–	–	–	0.347	0.379	0.399	0.267	0.381	0.336	0.246	0.194	0.58	0.567	0.62	0.57	0.591
NCI-H596	1.08	1.04	0.912	0.632	0.653	0.619	0.516	0.392	0.914	0.911	0.734	0.743	0.473	0.479	0.487	0.457	0.513
SK-LU-1	–	–	–	–	0.334	0.345	0.344	0.248	0.349	0.419	0.321	0.218	0.977	1.24	1.1	1.05	1.04
A-427	0.713	0.73	0.593	0.582	0.49	0.429	0.396	0.215	0.23	0.227	0.198	0.167	1.07	1.13	1.09	1.06	1.03
NCI-H460	0.478	0.552	0.564	0.576	0.605	0.56	0.637	0.49	0.407	0.526	0.19	0.0908	0.432	0.529	0.52	0.531	0.6
NCI-H1703	0.118	0.143	0.118	0.143	–	–	–	–	–	–	–	–	0.338	0.293	0.216	0.279	0.278
NCI-H1792	0.708	0.478	0.55	0.407	0.621	0.747	0.841	0.586	–	–	–	–	–	0.703	0.748	0.69	0.69
Calu-6	–	–	–	–	–	–	–	–	–	–	–	–	0.973	1.09	1.04	0.956	0.99
SW 1573	–	–	–	–	0.567	0.483	0.718	0.522	0.202	0.16	0.162	0.176	0.69	0.707	0.683	0.808	0.81
RERF-LC-KJ	0.838	0.951	1.13	0.961	0.603	0.576	0.688	0.522	0.476	0.474	0.405	0.281	0.808	0.928	0.906	0.806	0.935
EMC-BAC-2	0.996	1.05	1.13	0.989	0.368	0.376	0.39	0.368	0.285	0.275	0.277	0.239	0.702	0.764	0.808	0.767	0.747
LK-2	0.405	0.431	0.146	0.231	0.151	0.217	0.162	0.147	–	0.174	0.188	0.209	0.816	0.996	1.03	1.05	0.843
NCI-H2126	0.978	0.965	1.09	0.998	0.779	0.818	0.845	0.563	0.868	0.836	0.954	0.754	0.65	0.751	0.821	0.811	0.806
NCI-H322M	0.566	0.483	0.543	0.448	0.595	0.425	0.508	0.425	0.429	0.412	0.41	0.423	0.846	1.03	0.779	0.632	0.926
